From patent US5288757A, “Aminosulfonyl urea ACAT inhibitors and a method of lowering blood cholesterol levels therewith” (priority 1993, dated 1994)
Like-named read-outs stand apart in the source and are kept apart here.

Legend:
[1] = biological target: T1, acyl-CoA: cholesterol acyltransferase (ACAT) (Oryctolagus cuniculus, UniProt G1SFD9); assay: in vitro inhibition of ACAT (IAI), radiolabeled cholesterol oleate formation in rabbit intestinal microsomes; assay type: biochemical
T1 construct: in a tissue preparation containing rabbit intestinal microsomes; from tissue; host or cells: rabbit intestinal microsomes
T1 sequence (G1SFD9 1-524): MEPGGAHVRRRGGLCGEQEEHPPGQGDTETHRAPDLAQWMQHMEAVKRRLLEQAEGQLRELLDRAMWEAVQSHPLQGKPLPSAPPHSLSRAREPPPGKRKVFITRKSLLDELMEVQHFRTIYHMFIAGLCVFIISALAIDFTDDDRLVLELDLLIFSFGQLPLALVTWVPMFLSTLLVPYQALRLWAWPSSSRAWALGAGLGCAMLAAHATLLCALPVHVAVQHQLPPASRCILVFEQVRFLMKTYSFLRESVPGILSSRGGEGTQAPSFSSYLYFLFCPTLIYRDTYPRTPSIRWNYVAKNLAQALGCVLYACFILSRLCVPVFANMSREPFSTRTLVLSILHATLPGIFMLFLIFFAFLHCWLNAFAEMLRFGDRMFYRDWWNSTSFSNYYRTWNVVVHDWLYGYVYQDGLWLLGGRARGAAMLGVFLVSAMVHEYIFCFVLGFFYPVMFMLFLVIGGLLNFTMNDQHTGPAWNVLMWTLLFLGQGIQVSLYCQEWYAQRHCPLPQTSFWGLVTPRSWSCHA
Protocol: The ability of representative compounds of the present invention to inhibit ACAT was measured using an in vitro test more fully described in F. J. Field and R. G. Salone, Biochemica et Biophysica 712:557-570 (1982). The test assesses the ability of a test compound to inhibit the acylation of cholesterol by oleic acid by measuring the amount of radiolabeled cholesterol oleate formed from radiolabeled oleic acid in a tissue preparation containing rabbit intestinal microsomes.

[2] = tested on: Plasma TC; assay: in vivo screen designated APCC, plasma total cholesterol in rats on high fat, high cholesterol diet; parameters: species or system male Sprague-Dawley rats; settings: dosed at 30 mg/kg; rat; high fat, high cholesterol diet with 0.5% cholic acid; read-out: % Change in Plasma TC Values (mg/dl)
Source text: In one in vivo screen designated APCC, male Sprague-Dawley rats (200 to 225 g) were randomly divided into treatment groups and dosed at 4 PM with either vehicle (CMC/Tween) or suspensions of compounds in vehicle. The normal chow diet was then replaced with a high fat, high cholesterol diet with 0.5% cholic acid. The rats consumed this diet ad libitum during the night and were sacrificed at 8 AM to obtain blood samples for cholesterol analysis using standard procedures. Statistical differences between mean cholesterol values for the same vehicle were determined using analysis of variance followed by Fisher's least significant test. Compounds were dosed at 30 mg/kg unless otherwise noted.

Row | SMILES | IC50 ([1]; rabbit intestinal microsomes, read-out: IAI IC50) [µM] | change in vivo at 30 mg/kg [2] [%] | IC50 [1] [µM]
1 | CCCCN(CCCC)S(=O)(=O)N(C)C(=O)Nc1c(C(C)C)cccc1C(C)C [Example 44] | > 5 | -8 | 
2 | CC(C)c1cccc(C(C)C)c1NC(=O)NS(=O)(=O)N(C(C)C)C(C)C [Example 28, N-[2,6-bis(1-methylethyl)phenyl]-N'-[(diisopropylamino)sulfonyl]urea] |  | -60 | 1.1
